According to publication PMC12073449, “Development of a Mechanism of Action-Reflective Cell-Based Reporter Gene Assay for Measuring Bioactivities of Therapeutic Glucagon-like Peptide-2 Analogues” (Molecules, 2025):
Ends that are not written are not given here.

Tested on: HEK293-GLP-2R-Luc cells

## HGEGTFSSELATILDALAARDFINWLIATKITDKKKKKK-NH2 [glepaglutide]
  log2 (TD/Ctrl) CYP1B1: 1.052
  log2 (TD/Ctrl) CYP4V2: −1.198
  log2 (TD/Ctrl) CYP4 × 1: −1.963
Qvalue 0.001125
  log2 (TD/Ctrl) TRPV1: −1.038
Qvalue 0.001147
  log2 (TD/Ctrl) NEK8: −1.057
Qvalue 0.001214
  log2 (TD/Ctrl) METTL25: −1.045
Qvalue 0.001396
  log2 (TD/Ctrl) ITGA8: −1.102
Qvalue 0.00141
  log2 (TD/Ctrl) UBOX5: 1.051
Qvalue 0.001438
  log2 (TD/Ctrl) CC2D2A: −1.1174
Qvalue 0.001478
  log2 (TD/Ctrl) DERL3: −1.237
Qvalue 0.001549
  log2 (TD/Ctrl) ADAM12: 1.112
Qvalue 0.001565
  log2 (TD/Ctrl) RBPMS2: 1.069
Qvalue 0.001608
  log2 (TD/Ctrl) RBM11: 1.143
Qvalue 0.001637
  log2 (TD/Ctrl) SLCO2A1: 1.773
Qvalue 0.001638
  log2 (TD/Ctrl) AMH: −1.122
Qvalue 0.001666
  log2 (TD/Ctrl) EMP1: 1.518
Qvalue 0.001684
  log2 (TD/Ctrl) RNLS: 2.251
Qvalue 0.001714
  log2 (TD/Ctrl) AATK: 1.156
Qvalue 0.001797
  log2 (TD/Ctrl) ZSWIM4: 1.054
Qvalue 0.001858
  log2 (TD/Ctrl) NGEF: 1.549
Qvalue 0.002022
  log2 (TD/Ctrl) LOC124901228: −1.299
Qvalue 0.00213
  log2 (TD/Ctrl) HILPDA: −1.215
Qvalue 0.002224
  log2 (TD/Ctrl) GPRASP3: −1.474
Qvalue 0.002313
  log2 (TD/Ctrl) SRGAP3: −1.063
Qvalue 0.002369
  log2 (TD/Ctrl) PPEF1: 1.543
Qvalue 0.002402
  log2 (TD/Ctrl) BOK: 1.599
Qvalue 0.002734
  log2 (TD/Ctrl) PRR7: 1.209
Qvalue 0.002832
  log2 (TD/Ctrl) SAT1: 2.416
Qvalue 0.002952
  log2 (TD/Ctrl) SDHAF4: 1.018
Qvalue 0.003482
  log2 (TD/Ctrl) IL7R: 2.4
  log2 (TD/Ctrl) RHOB: 2.852
Qvalue 0.003634
  log2 (TD/Ctrl) CCDC61: 1.663
Qvalue 0.004109
  log2 (TD/Ctrl) H2BC21: 1.259
Qvalue 0.004272
  log2 (TD/Ctrl) CXCL12: −2.422
Qvalue 0.004706
  log2 (TD/Ctrl) UGT3A1: 3.069
Qvalue 0.005296
  log2 (TD/Ctrl) MYPN: 2.401
Qvalue 0.005327
  log2 (TD/Ctrl) PTPRN: 3.046
Qvalue 0.005404
  log2 (TD/Ctrl) RHBDF1: 1.083
Qvalue 0.005739
  log2 (TD/Ctrl) KLF2: 1.928
Qvalue 0.005953
  log2 (TD/Ctrl) SH2D2A: 2.922
Qvalue 0.005991
  log2 (TD/Ctrl) SYT4: 2.338
Qvalue 0.006147
  log2 (TD/Ctrl) NTRK2: 1.454
Qvalue 0.006233
  log2 (TD/Ctrl) PLPP2: 1.309
Qvalue 0.006489
  log2 (TD/Ctrl) ATG16L2: 1.087
Qvalue 0.00679
  log2 (TD/Ctrl) ASGR1: 2.135
Qvalue 0.007207
  log2 (TD/Ctrl) DHRS9: 2.367
Qvalue 0.00738
  log2 (TD/Ctrl) SH2D5: 1.053
Qvalue 0.007467
  log2 (TD/Ctrl) SLC30A3: 1.182
Qvalue 0.007984
  log2 (TD/Ctrl) SHANK2: 2.035
Qvalue 0.008009
  log2 (TD/Ctrl) NAA80: 1.249
Qvalue 0.008212
  log2 (TD/Ctrl) CLIP2: 1.052
Qvalue 0.008527
  log2 (TD/Ctrl) LOC128125822: 2.711
Qvalue 0.008622
  log2 (TD/Ctrl) RND1: 1.057
Qvalue 0.008648
  log2 (TD/Ctrl) SH3RF2: 1.516
Qvalue 0.008669
  log2 (TD/Ctrl) DUSP2: 3.424
Qvalue 0.009809
  log2 (TD/Ctrl) MAGED4: −1.159
Qvalue 0.009857
  log2 (TD/Ctrl) MAP6: 1.691
Qvalue 0.010366
  log2 (TD/Ctrl) TMEM225B: 1.448
Qvalue 0.010428
  log2 (TD/Ctrl) CHRD: 1.261
Qvalue 0.011191
  log2 (TD/Ctrl) FNTB: −1.039
Qvalue 0.011267
  log2 (TD/Ctrl) MARVELD3: 1.031
Qvalue 0.011445
  log2 (TD/Ctrl) FSTL4: 1.312
Qvalue 0.011547
  log2 (TD/Ctrl) POC1B-GALNT4: −1.319
Qvalue 0.011565
  log2 (TD/Ctrl) GDPGP1: −1.43
Qvalue 0.012071
  log2 (TD/Ctrl) CREG2: 1.949
Qvalue 0.01208
  log2 (TD/Ctrl) CERS4: 1.131
Qvalue 0.012462
  log2 (TD/Ctrl) ANKRD1: 2.953
  log2 (TD/Ctrl) PLEKHN1: 2.21
Qvalue 0.012583
  log2 (TD/Ctrl) KRT75: 2.099
Qvalue 0.012744
  log2 (TD/Ctrl) ALDH1L2: 1.303
Qvalue 0.013456
  log2 (TD/Ctrl) GUCA1B: 1.026
Qvalue 0.013825
  log2 (TD/Ctrl) SH2D3A: 1.146
Qvalue 0.013837
  log2 (TD/Ctrl) CATSPERE: −2.496
Qvalue 0.014032
  log2 (TD/Ctrl) TFEB: 1.085
Qvalue 0.014161
  log2 (TD/Ctrl) SCN2A: −2.494
Qvalue 0.014365
  log2 (TD/Ctrl) FAM47E-STBD1: 6.132
Qvalue 0.014439
  log2 (TD/Ctrl) IL11: 2.543
Qvalue 0.015122
  log2 (TD/Ctrl) ICOSLG: 1.337
Qvalue 0.016047
  log2 (TD/Ctrl) HHIP: 1.114
Qvalue 0.016322
  log2 (TD/Ctrl) COL15A1: 2.733
Qvalue 0.016921
  log2 (TD/Ctrl) ADAMTSL1: 1.769
Qvalue 0.017304
  log2 (TD/Ctrl) AJM1: −1.327
Qvalue 0.017723
  log2 (TD/Ctrl) RASGRP3: 1.426
Qvalue 0.018109
  log2 (TD/Ctrl) ZNF233: −1.102
Qvalue 0.018318
  log2 (TD/Ctrl) ADM2: 1.127
Qvalue 0.018333
  log2 (TD/Ctrl) FMNL1: 1.446
Qvalue 0.018911
  log2 (TD/Ctrl) PHF24: 1.839
Qvalue 0.019619
  log2 (TD/Ctrl) MAP2: −1.138
Qvalue 0.020272
  log2 (TD/Ctrl) BCL3: 1.728
Qvalue 0.020878
  log2 (TD/Ctrl) EXO5: −1.023
Qvalue 0.020952
  log2 (TD/Ctrl) POLN: −1.364
Qvalue 0.021231
  log2 (TD/Ctrl) C20orf204: −1.777
  log2 (TD/Ctrl) TMEM54: 1.072
Qvalue 0.021465
  log2 (TD/Ctrl) RYR1: 1.055
Qvalue 0.021994
  log2 (TD/Ctrl) PHKG1: 1.955
Qvalue 0.022289
  log2 (TD/Ctrl) KLF6: 1.402
Qvalue 0.022315
  log2 (TD/Ctrl) LRRTM4: −1.285
Qvalue 0.023229
  log2 (TD/Ctrl) PHOSPHO2: −1.059
Qvalue 0.023249
  log2 (TD/Ctrl) MICOS10-NBL1: 1.952
Qvalue 0.023634
  log2 (TD/Ctrl) PDE3A: 1.882
Qvalue 0.023651
  log2 (TD/Ctrl) LARGE2: 1.17
Qvalue 0.024442
  log2 (TD/Ctrl) HES7: 1.525
Qvalue 0.024619
  log2 (TD/Ctrl) VSTM2B: 1.668
Qvalue 0.02493
  log2 (TD/Ctrl) INSM1: 1.259
Qvalue 0.025061
  log2 (TD/Ctrl) SIK1: 1.255
Qvalue 0.02555
  log2 (TD/Ctrl) IQANK1: −1.07
Qvalue 0.026368
  log2 (TD/Ctrl) TRABD2A: 1.121
Qvalue 0.026593
  log2 (TD/Ctrl) RAB20: 1.265
Qvalue 0.026923
  log2 (TD/Ctrl) ADAM8: −1.632
Qvalue 0.027245
  log2 (TD/Ctrl) EGR2: 1.924
Qvalue 0.027976
  log2 (TD/Ctrl) ACTRT3: −1.89
Qvalue 0.028089
  log2 (TD/Ctrl) CILP2: 1.014
Qvalue 0.028153
  log2 (TD/Ctrl) KCNJ4: 1.521
Qvalue 0.0305
  log2 (TD/Ctrl) NGFR: 1.083
Qvalue 0.031918
  log2 (TD/Ctrl) GPR146: −1.284
Qvalue 0.032594
  log2 (TD/Ctrl) SLC2A9: −1.825
Qvalue 0.032833
  log2 (TD/Ctrl) FIBIN: −1.931
Qvalue 0.033388
  log2 (TD/Ctrl) INSC: 1.775
Qvalue 0.034028
  log2 (TD/Ctrl) TRPM4: 1.164
Qvalue 0.034573
  log2 (TD/Ctrl) TOR4A: −1.123
Qvalue 0.034821
  log2 (TD/Ctrl) ANXA3: 1.046
Qvalue 0.035979
  log2 (TD/Ctrl) F2RL2: 2.195
Qvalue 0.036382
  log2 (TD/Ctrl) GFRA2: 1.989
Qvalue 0.036855
  log2 (TD/Ctrl) CHD5: 1.476
Qvalue 0.037055
  log2 (TD/Ctrl) IER5L: 1.227
Qvalue 0.03809
  log2 (TD/Ctrl) CORO1A: 1.157
Qvalue 0.038243
  log2 (TD/Ctrl) DMRT1: 2.578
Qvalue 0.038553
  log2 (TD/Ctrl) TMEM200A: 2.008
Qvalue 0.038759
  log2 (TD/Ctrl) BIRC3: 1.213
Qvalue 0.040011
  log2 (TD/Ctrl) GJB7: −1.706
Qvalue 0.044085
  log2 (TD/Ctrl) PABIR3: 1.001
Qvalue 0.044461
  log2 (TD/Ctrl) DAB1: 1.527
Qvalue 0.046355
  log2 (TD/Ctrl) CLIC5: 1.134
Qvalue 0.046402
  log2 (TD/Ctrl) LOC124904248: −1.239
Qvalue 0.046871
  log2 (TD/Ctrl) FOXD4: −1.765
Qvalue 0.046941
  log2 (TD/Ctrl) SNAI2: 1.1
Qvalue 0.047154
  log2 (TD/Ctrl) ANKRD20A1: 1.015
Qvalue 0.048413
  log2 (TD/Ctrl) MVP: 1.066
Qvalue 0.048554
  log2 (TD/Ctrl) SHISA8: 1.031
Qvalue 0.04891
  log2 (TD/Ctrl) TBC1D3C: −2.321
Qvalue 0.049404
  log2 (TD/Ctrl) CDH1: 1.135
Qvalue 0.049596
  log2 (TD/Ctrl) ZNF296: 1.005
Qvalue 1.00 × 10^−4
  log2 (TD/Ctrl) IRX4: 3.763
Qvalue 1.04 × 10^−4
  log2 (TD/Ctrl) LYPD6: −1.124
Qvalue 1.04 × 10^−9
  log2 (TD/Ctrl) TGFB1: 1.683
Qvalue 1.04 × 10^−10
  log2 (TD/Ctrl) SMOX: 1.479
Qvalue 1.05 × 10^−12
  log2 (TD/Ctrl) GPR3: 3.013
Qvalue 1.07 × 10^−13
  log2 (TD/Ctrl) PMAIP1: 1.02
Qvalue 1.09 × 10^−13
  log2 (TD/Ctrl) CCN1: 1.83
Qvalue 1.10 × 10^−10
  log2 (TD/Ctrl) BAX: −1.136
Qvalue 1.10 × 10^−21
  log2 (TD/Ctrl) ACTBL2: 2.68
Qvalue 1.18 × 10^−18
  log2 (TD/Ctrl) CREM: 1.319
Qvalue 1.19 × 10^−6
  log2 (TD/Ctrl) TFPI: 1.103
Qvalue 1.21 × 10^−4
  log2 (TD/Ctrl) CFAP44: −1.2179
Qvalue 1.22 × 10^−4
  log2 (TD/Ctrl) SPRY4: 1.583
Qvalue 1.22 × 10^−6
  log2 (TD/Ctrl) GCNT1: −1.113
Qvalue 1.23 × 10^−13
  log2 (TD/Ctrl) DUSP1: 2.837
Qvalue 1.26 × 10^−13
  log2 (TD/Ctrl) MAFK: 1.561
Qvalue 1.30 × 10^−33
  log2 (TD/Ctrl) GEM: 2.896
Qvalue 1.31 × 10^−5
  log2 (TD/Ctrl) EML2: 1.098
Qvalue 1.32 × 10^−6
  log2 (TD/Ctrl) ECEL1: 2.018
Qvalue 1.32 × 10^−9
  log2 (TD/Ctrl) NFATC1: 1.146
Qvalue 1.34 × 10^−6
  log2 (TD/Ctrl) LBHD1: −1.453
Qvalue 1.34 × 10^−10
  log2 (TD/Ctrl) GNG4: 1.107
Qvalue 1.35 × 10^−4
  log2 (TD/Ctrl) GFPT2: 1.08
  log2 (TD/Ctrl) HOXB6: −1.274
Qvalue 1.36 × 10^−15
  log2 (TD/Ctrl) VGF: 2.99
Qvalue 1.38 × 10^−4
  log2 (TD/Ctrl) USP4: 1.002
Qvalue 1.39 × 10^−4
  log2 (TD/Ctrl) CASD1: −1.007
Qvalue 1.39 × 10^−7
  log2 (TD/Ctrl) SGK1: 1.322
Qvalue 1.40 × 10^−4
  log2 (TD/Ctrl) PHLDA1: 1.224
Qvalue 1.40 × 10^−27
  log2 (TD/Ctrl) NDRG1: 1.674
Qvalue 1.41 × 10^−13
  log2 (TD/Ctrl) EMILIN2: 1.304
Qvalue 1.41 × 10^−16
  log2 (TD/Ctrl) TPM4: 1.086
Qvalue 1.44 × 10^−4
  log2 (TD/Ctrl) FOSB: 2.796
Qvalue 1.44 × 10^−12
  log2 (TD/Ctrl) IER3: 1.677
Qvalue 1.47 × 10^−8
  log2 (TD/Ctrl) AHR: 1.016
  log2 (TD/Ctrl) SPINT1: 1.307
Qvalue 1.47 × 10^−41
  log2 (TD/Ctrl) PTP4A1: 1.5
Qvalue 1.49 × 10^−13
  log2 (TD/Ctrl) FOSL2: 1.385
Qvalue 1.52 × 10^−19
  log2 (TD/Ctrl) GADD45A: 1.573
Qvalue 1.54 × 10^−5
  log2 (TD/Ctrl) FOS: 3.22
  log2 (TD/Ctrl) SMAD6: −1.023
Qvalue 1.54 × 10^−10
  log2 (TD/Ctrl) FADS2: −1.136
Qvalue 1.56 × 10^−4
  log2 (TD/Ctrl) DNAJB5: 1.316
